Laboratory results published in US11052157B2 (priority 2014, dated 2021).
Where a name gives a salt, the structure may show the parent alone.

Columns and labels:
[1] = test system: intact, bacterially derived minicells; test: Flow cytometry of dye-packaged minicells (FL1 channel); design: species or system Salmonella enterica serovar Typhimurium; conditions: BacLight Green 200 nM, 30 minutes, room temperature
Description: (§1) Minicells packaged with BacLight™ Green were analyzed by flow cytometry (Beckman Coulter FC500). Empty minicells and BacLight™ Green-packaged minicells were labeled with an anti-LPS alexa fluor 647 (AF647) antibody. Firstly, the minicells were analyzed using the FL4 channel to detect anti-LPS AF647-stained minicells. The minicell population was visualized in a dot plot using FL4 fluorescence versus forward scatter, and the population was gated to select anti-LPS AF647 stained minicells only, disregarding any debris.
The gated population was analyzed on the FL1 channel, to detect BacLight™ Green fluorescence.
as §1, with “loaded” for “packaged”, “SYTO 9®” for “BacLight™ Green”, “SYTO® 9-stained” for “BacLight™ Green-packaged”, “plot,” for “plot”, “AF647-stained” for “AF647 stained”, “debris. The gated population then was analyzed on the FL1 channel, to detect SYTO 9 fluorescence.” for “debris.”

[2] = cited from earlier work
[3] = test system: MDA-MB-468 human breast cancer cells; test: Incubation of non-targeted doxorubicin-loaded minicells (small-scale protocol) with cancer cells, confocal microscopy; format: cell-based; conditions: 1×10^8 non-targeted doxorubicin-loaded minicells (small-scale protocol), 10^4 cells per well; within two days
Description: Upon overnight incubation with the drug (about 1 ml/mg) at 37° C. with rotation, the loaded minicells were subjected five times to a washing step that entailed centrifugation (13,200 rpm, 10 minutes) and resuspension of the resultant pellet in 1 ml BSG buffer (pH 7.4).
The washed, doxorubicin-loaded minicells (1×10^8) then were incubated with estrogen receptor-negative MDA-MB-468 human breast cancer cells (10^4 cells per well) in Gibco RPMI-1640 tissue culture medium (in 0.5 ml per well) supplemented with 10% Fetal Bovine Serum, 2 mM L-glutamine, and 100 U/ml of both penicillin G and streptomycin.
The cells were monitored subsequently every 24 hours via confocal microscopy.

[4] = Fluorescence readings of doxorubicin loading solutions with folic acid (plate reader); format: physicochemical; conditions: for % Fluorescence Em λ590 nm / % Fluorescence Em λ620 nm: excitation 485 nm
Description: The solutions were incubated at room temperature overnight and then were filtered through a 0.1 μm filter, to sterilize the solutions and to remove any particulates.
On the following day the fluorescence of an aliquot of each solution was measured with a fluorescence plate reader (excitation wavelength: 485 nm, emission wavelengths: 590 nm and 620 nm). Concomitantly, minicells were washed with PBS buffer and then were loaded with one or another of each of the Dox+FA solutions, previously prepared at a density of 2.5×10^10 minicells/ml, in a volume between about 1 ml to 2 mls. Samples (500 μl) were taken from each of the treatment groups at the time points of 30 minutes, 1 hour, 2 hours, 4 hours, 6 hours, and overnight.

Molecule: CN1C(=CC=Cc2n(Cc3ccc(CCl)cc3)c3cc(Cl)c(Cl)cc3[n+]2Cc2ccc(CCl)cc2)Oc2ccccc21.[Cl-] [BacLight™ Green]
- minicells that are fluorescent [1]: greater than 95%

Molecule: O=C1c2c(O)ccc(O)c2C(=O)c2c(NCCNCCO)ccc(NCCNCCO)c21 [MTX, mitoxantrone dihydrochloride]
- solubility in water [2]: 5 to 7.5 mg/mL

Molecule: doxorubicin
- doxorubicin entry into cancer cells (confocal microscopy) [3]: red fluorescence in their nuclei
- % Fluorescence Em λ590 nm ([4]; 0 μg/ml FA, Dox 100 pg/ml in PBS): 100%
- % Fluorescence Em λ620 nm ([4]; 0 μg/ml FA): 100%
- % Fluorescence Em λ590 nm ([4]; 50 μg/ml FA): 93%
- % Fluorescence Em λ620 nm ([4]; 50 μg/ml FA): 94%
- doxorubicin emission fluorescence lost ([4]; 50 μg/ml folic acid): 6-7%
- % Fluorescence Em λ590 nm ([4]; 400 μg/ml FA): 61%
- % Fluorescence Em λ620 nm ([4]; 400 μg/ml FA): 59%
- doxorubicin fluorescence emission signal lost ([4]; 400 μg/ml of folic acid): ~40%
